Our source for the TGI and GI50 values is PubChem BioAssay (NCI).

Among the test systems are M14 melanoma; T-47D breast; HL-60(TB) leukemia; IGROV1 ovarian; HCT-15 colon; OVCAR-4 ovarian; HCC-2998 colon; HT29 colon; SNB-19 CNS; MCF7 breast; MDA-MB-435; A498 renal; SR leukemia; NCI-H460 lung.
What all share (experiment): inhibition of tumour cell growth, NCI panel, 48 h

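48-hour exposure; five concentrations; linearly interpolated endpoints. Abbreviation: GI50, concentration required for 50% inhibition of growth. TGI denotes the concentration required for complete inhibition of growth.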 Bounds are passed on as bounds.

As for `COc1ccc2c(c1)CCCN1CCc3ccccc3C21` (stereo not drawn), the TGI with M14 melanoma was 51.5 µM; in the experiment on T-47D breast, greater than 100 µM; in the experiment with HL-60(TB) leukemia, 43.3 µM; in the experiment with IGROV1 ovarian, greater than 100 µM; with HCT-15 colon, greater than 100 µM; in the experiment on OVCAR-4 ovarian, greater than 100 µM. For the same compound, the TGI in the experiment with HCC-2998 colon is greater than 100 µM; with HT29 colon it was greater than 100 µM; with SNB-19 CNS, greater than 100 µM; with MCF7 breast it was greater than 100 µM; in the experiment on MDA-MB-435, 43.2 µM; with A498 renal it was greater than 100 µM. In addition, the TGI with SR leukemia was 61.2 µM; in the experiment on NCI-H460 lung it was greater than 100 µM.
For `O=C(/C=C/c1ccccc1)Nc1ccccc1SCCCCl`, the TGI in the experiment with M14 melanoma is greater than 100 µM; in the experiment on T-47D breast, greater than 85.8 µM; in the experiment on HL-60(TB) leukemia, 43.6 µM; with IGROV1 ovarian, greater than 51.5 µM; in the experiment on HCT-15 colon it was greater than 100 µM; with OVCAR-4 ovarian, greater than 100 µM. The TGI in the experiment on HCC-2998 colon is 73.9 µM; with HT29 colon, greater than 41.4 µM; with SNB-19 CNS, greater than 95.4 µM; in the experiment on MCF7 breast, greater than 100 µM; in the experiment on MDA-MB-435 it was 37 µM; in the experiment on A498 renal, greater than 29.5 µM. Further, the TGI is 64.7 µM with SR leukemia and greater than 82.2 µM in the experiment on NCI-H460 lung.
`COc1ccc(-c2c3c(n(C4OC(CO)C(O)C(O)C4O)c(=S)c2C#N)CCCC3)cc1` (stereo not drawn): the TGI in the experiment with M14 melanoma, in the experiment with T-47D breast, with HL-60(TB) leukemia, in the experiment on IGROV1 ovarian, in the experiment on HCT-15 colon and in the experiment with OVCAR-4 ovarian was greater than 100 µM throughout. Also, the TGI in the experiment with HCC-2998 colon, in the experiment on HT29 colon, in the experiment with MCF7 breast, in the experiment with MDA-MB-435, in the experiment with A498 renal and with SR leukemia was greater than 100 µM throughout. In addition, the TGI with NCI-H460 lung was greater than 100 µM.
In the case of `Cc1ccc2c(=O)cc(-c3ccc4ccccc4c3)[nH]c2n1`, the TGI was greater than 100 µM in the experiment on M14 melanoma; greater than 100 µM with T-47D breast; 4.18 µM with HL-60(TB) leukemia; 82.7 µM in the experiment on IGROV1 ovarian; greater than 100 µM in the experiment on HCT-15 colon; 93.2 µM in the experiment on OVCAR-4 ovarian. The TGI with HCC-2998 colon was 68.6 µM; with HT29 colon, greater than 100 µM; in the experiment on SNB-19 CNS it was greater than 100 µM; with MCF7 breast, 37.9 µM; in the experiment on MDA-MB-435, 4.16 µM; in the experiment on A498 renal, 15.5 µM. Moreover, the figures for the TGI with SR leukemia and in the experiment with NCI-H460 lung were 5.59 µM and greater than 100 µM, respectively. Also, the GI50 was 1.57 µM with MDA-MB-435 and 3.82 µM in the experiment on NCI-H460 lung.
With `CC(=O)c1ccc2c(c1)CC1(C2)Cc2cc3c(c(C(=O)O)c2C1)CCC3` (stereo not drawn), the TGI with T-47D breast, in the experiment on HL-60(TB) leukemia, with IGROV1 ovarian, in the experiment on HCT-15 colon, in the experiment on OVCAR-4 ovarian and with HCC-2998 colon was greater than 100 µM each time. Also, the TGI in the experiment with HT29 colon, in the experiment with MCF7 breast, with MDA-MB-435, in the experiment with A498 renal, in the experiment on SR leukemia and in the experiment with NCI-H460 lung was greater than 100 µM in each case.
For the compound `CN(C)N1C(=O)S/C(=C\c2ccc([N+](=O)[O-])cc2)C1=O`, the TGI in the experiment on M14 melanoma, in the experiment with T-47D breast, in the experiment on HL-60(TB) leukemia, in the experiment on IGROV1 ovarian, in the experiment on HCT-15 colon and in the experiment on OVCAR-4 ovarian was greater than 100 µM each time. In addition, the TGI with HCC-2998 colon, in the experiment on HT29 colon, in the experiment with MCF7 breast, in the experiment with MDA-MB-435, with A498 renal and in the experiment with SR leukemia was greater than 100 µM in each case. Further, in the experiment with NCI-H460 lung, the TGI was greater than 100 µM.
`NC1CCC(N(CC(=O)O)CC(=O)O)C(N(CC(=O)O)CC(=O)O)C1` (stereo not drawn): the TGI with T-47D breast, in the experiment with HL-60(TB) leukemia, with IGROV1 ovarian, in the experiment on HCT-15 colon, in the experiment on OVCAR-4 ovarian and with HCC-2998 colon was greater than 100 µM each time. Further, the TGI in the experiment with HT29 colon, in the experiment with SNB-19 CNS, in the experiment with MCF7 breast, in the experiment with MDA-MB-435, in the experiment on A498 renal and in the experiment on SR leukemia was greater than 100 µM in each case. Besides, the TGI with NCI-H460 lung is greater than 100 µM.
Regarding `O=C1CCc2ccc(O)c(c2)Oc2ccc(cc2)C(Sc2ccccc2)CCO1` (stereo not drawn), the TGI in the experiment on M14 melanoma was 32.1 µM; in the experiment with T-47D breast, 54.1 µM; in the experiment on HL-60(TB) leukemia, greater than 100 µM; with IGROV1 ovarian it was 27.6 µM; with HCT-15 colon, 29.9 µM; in the experiment with OVCAR-4 ovarian, 26.1 µM. The TGI with HCC-2998 colon is 32.9 µM; with HT29 colon, 30.1 µM; with SNB-19 CNS, 39.8 µM; with MCF7 breast, 43.8 µM; in the experiment with MDA-MB-435, 41.9 µM; in the experiment with A498 renal it was 31.8 µM. This compound also yielded a TGI in the experiment with SR leukemia of 76 µM.
